Experimental data as given in patent US20110117227A1, “COSMETIC COMPOSITION FOR ANTI-AGING OF THE SKIN COMPRISING PHASEOLUS RADIATUS SEED EXTRACTS BY FERMENTATION AND ENZYME TREATMENT” (COREANA COSMETICS, CO., LTD., priority 2008, published 2011).

Legend:
Format in all cases: cell-based
[1] = tested on: Human normal fibroblasts; assay: Collagen biosynthesis (procollagen type I C-peptide level) in human normal fibroblasts; settings: positive control 250 uM, PICP
Description: Human normal fibroblasts were inoculated in a 48-well microplate ([…]) containing DMEM (Dulbecco's Modified Eagle Medium), followed by culture at 37° C. for 24 hours. […] After the culture, supernatant of each well was collected and procollagen type I C-peptide (PICP) level therein was measured using the kit (Takara, Japan) to calculate the amount of collagen newly synthesized. PICP level was calculated as ng/ml. […] The increasing rate of collagen biosynthesis was calculated according to the following Math Figure 1 and the results are shown in Table 2.

[2] = tested on: Human skin cells, fibroblasts; assay: Alleviation of cell irritation caused by lactic acid (MTT cell survival); settings: lactic acid 0.2% only (comparative control), 12 hours
Description: Human skin cells, fibroblasts (KCTC, Korean Collection for Type Culture, Korea), were cultured in T-75 flask (Falcon, USA) until the cell confluency reached 80%. The cells were transferred to a 96-well plate (Falcon, USA) at the density of 3×10^4 cells/well, followed by further culture for 24 hours. After the culture, the cells were observed under microscope if they were completely adhered and well-grown. As a stimulus for skin, lactic acid (0.2%) was used. Particularly, 200 μl of each DMEM supplemented with 0.2% lactic acid and DMEM not-containing lactic acid was added to each well, to which the Phaseolus radiatus extract, the Phaseolus radiatus liquor of yeast-fermentation, the Phaseolus radiatus liquor of lactic acid bacterium-fermentation, the Phaseolus radiatus extract of enzyme treatment-yeast fermentation, the Phaseolus radiatus extract of enzyme treatment-lactic acid bacterium fermentation (Comparative Manufacturing Examples 1-5), and the Phaseolus radiatus extract of fermentation-enzyme treatment (Manufacturing Examples 1 and 2) were added thereto at the concentration of 1.0% (v/v). […] Particularly, MTT (Sigma, USA) solution (3 mg/ml) was added thereto and then Absorbance at 570 nm was measured using ELISA reader (Molecular Devices, USA).

[3] = tested on: Human normal fibroblasts; assay: Fibroblast proliferation (MTT); settings: positive control 10 ng/ml
Description: Human normal fibroblasts were inoculated in a 96-well microplate (1×10^4 cells/well) containing DMEM, followed by culture at 37° C. for 24 hours. The Phaseolus radiatus extract prepared in Comparative Manufacturing Example 1, the Phaseolus radiatus liquor of yeast-fermentation prepared in Comparative Manufacturing Example 2, the Phaseolus radiatus liquor of lactic acid bacterium-fermentation prepared in Comparative Manufacturing Example 3, the Phaseolus radiatus extract of enzyme treatment-yeast fermentation prepared in Comparative Manufacturing Example 4, the Phaseolus radiatus extract of enzyme treatment-lactic acid bacterium fermentation prepared in Comparative Manufacturing Example 5, the Phaseolus radiatus extract of yeast fermentation-enzyme treatment prepared in Manufacturing Example 1 and the Phaseolus radiatus extract of lactic acid bacterium fermentation-enzyme treatment prepared in Manufacturing Example 2 were treated to the experimental group in which the final concentration of the respective extracts or liquors was 1% and medium was replaced with serum-free medium, followed by further culture for 24 hours. […] Particularly, MTT (Sigma, USA) solution (3 mg/ml) was added thereto and then Absorbance at 570 nm was measured using ELISA reader (Molecular Devices, USA). […]

Question: How did the “Increasing rate of collagen biosynthesis (%)” value [1] turn out when `O=C1O[C@H]([C@@H](O)CO)C(O)=C1O` [Ascorbic acid, ascorbic acid] was run?
Answer: 72.8%

Question: `CC(O)C(=O)O` (stereo not drawn) [lactic acid] was tested. Which “Proliferation rate of fibroblast (%)” value [2] did it give?
Answer: 0.0%

Question: With TGF-β as the molecule, how does the “Proliferation rate of fibroblast (%)” value [3] read?
Answer: 186.6%
